The record followed here is US9149476B2, “Thiochromene derivatives as HIF hydroxylase inhibitors” (FibroGen, Inc., priority 2008, dated 2015).

T1 sequence (Q9GZT9 whole entry): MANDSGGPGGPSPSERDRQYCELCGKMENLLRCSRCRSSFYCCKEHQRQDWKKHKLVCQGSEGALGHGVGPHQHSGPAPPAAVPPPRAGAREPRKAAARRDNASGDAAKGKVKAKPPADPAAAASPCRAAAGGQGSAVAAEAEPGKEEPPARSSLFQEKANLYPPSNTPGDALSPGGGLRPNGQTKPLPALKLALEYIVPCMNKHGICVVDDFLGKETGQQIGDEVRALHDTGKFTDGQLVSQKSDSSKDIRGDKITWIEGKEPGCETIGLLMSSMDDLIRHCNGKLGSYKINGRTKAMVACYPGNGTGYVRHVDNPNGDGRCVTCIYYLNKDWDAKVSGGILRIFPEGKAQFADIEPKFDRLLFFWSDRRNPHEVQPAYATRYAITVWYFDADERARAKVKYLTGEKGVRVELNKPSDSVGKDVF

The first assay concerns the target T1, HIF-PH2 (EGLN1) (Homo sapiens, UniProt Q9GZT9).
T1 construct: made in house; host or cells: insect Hi5 cells
Description: HIF-PH assay (14CO2 capture, peptide-dependent turnover). The assay is classed as biochemical. The settings on record: compound concentration 7.4 μM. From the text: Ketoglutaric acid α-[1-^14C]-sodium salt, alpha-ketoglutaric acid sodium salt, and HPLC purified peptide may be obtained from commercial sources, e.g., Perkin-Elmer (Wellesley Mass.), Sigma-Aldrich, and SynPep Corp. (Dublin Calif.), respectively. Peptides for use in the assay may be fragments of HIFα as described above or as disclosed in International Publication WO 2005/118836, incorporated by reference herein. For example, a HIF peptide for use in the HIF-PH assay is [methoxycoumarin]-DLDLEALAPYIPADDDFQL-amide (SEQ ID NO:2). HIF-PH, e.g., HIF-PH2 (EGLN1), can be expressed in, e.g., insect Hi5 cells, and partially purified, e.g., through a SP ion exchange chromatography column. Enzyme activity is determined by capturing ^14CO2 using an assay described by Kivirikko and Myllyla (1982, Methods Enzymol. 82:245-304). Assay reactions contain 50 mM HEPES (pH 7.4), 100 μM α-ketoglutaric acid sodium salt, 0.30 μCi/mL ketoglutaric acid α-[1-^14C]-sodium salt, 40 μM FeSO4, 1 mM ascorbate, 1541.8 units/mL Catalase, with or without 50 μM peptide substrate and various concentrations of compound of the invention. Reactions are initiated by addition of HIF-PH enzyme.
The peptide-dependent percent turnover is calculated by subtracting percent turnover in the absence of peptide from percent turnover in the presence of substrate peptide. Percent inhibition and IC50 are calculated using peptide-dependent percent turnover at given inhibitor concentrations. Calculation of IC50 values for each inhibitor is conducted using GraFit software (Erithacus Software Ltd., Surrey UK).
Representative compounds of the invention were analyzed using the HIF-PH assay described above. Table 1 presents enzyme inhibition data for exemplary compounds against HIF-PH2, a representative HIF prolyl hydroxylase. By inhibiting HIF prolyl hydroxylase, compounds of the invention stabilize HIFα, which then combines with HIFβ to form an active transcription factor that increases expression of various genes involved in numerous beneficial cellular processes.
For `O=C(O)CNC(=O)c1c(O)c2cc(Cl)ccc2sc1=O` [Example 58, [(6-Chloro-4-hydroxy-2-oxo-2H-thiochromene-3-carbonyl)-amino]-acetic acid], the inhibition at 7.4 µM came out at 96.8%.

The same assay, now with this note: compound concentration 12.5 μM.
Regarding `O=C(O)CNC(=O)c1c(O)c2ccc(F)cc2sc1=O` [Example 21, [(7-Fluoro-4-hydroxy-2-oxo-2H-thiochromene-3-carbonyl)-amino]-acetic acid], the inhibition at 12.5 µM came out at 91.1%. The same measure, in the same setting: next, `O=C(O)CNC(=O)c1c(O)c2ccc(Br)cc2sc1=O` [Example 5, [(7-bromo-4-hydroxy-2-oxo-2H-thiochromene-3-carbonyl)-amino]-acetic acid]: 97.6%. Still for that read-out and setting: next, `COc1ccc(-c2ccc3c(O)c(C(=O)NCC(=O)O)c(=O)sc3c2)cc1` [Example 7, {[4-Hydroxy-7-(4-methoxy-phenyl)-2-oxo-2H-thiochromene-3-carbonyl]-amino}-acetic acid]: 98.7%.

The same assay, now with this note: compound concentration 50 μM.
On to `O=C(O)CNC(=O)c1c(O)c2ccc(-c3ccc(C(F)(F)F)cc3)cc2sc1=O` [Example 11, {[4-Hydroxy-2-oxo-7-(4-trifluoromethyl-phenyl)-2H-thiochromene-3-carbonyl]-amino}-acetic acid], for which the inhibition at 50 µM was found to be 95.8%. The same measure, in the same setting: next, `O=C(O)CNC(=O)c1c(O)c2c(F)cccc2sc1=O` [Example 52, [(5-Fluoro-4-hydroxy-2-oxo-2H-thiochromene-3-carbonyl)-amino]-acetic acid]: 98.5%; `O=C(O)CNC(=O)c1c(O)c2cc(Cl)cc(-c3ccccc3)c2sc1=O` [Example 44, [(6-Chloro-4-hydroxy-2-oxo-8-phenyl-2H-thiochromene-3-carbonyl)-amino]-acetic acid]: 100%. Still for that read-out and setting: next, `O=C(O)CNC(=O)c1c(O)c2cccc(Cc3ccccc3)c2sc1=O` [Example 47, [(8-Benzyl-4-hydroxy-2-oxo-2H-thiochromene-3-carbonyl)-amino]-acetic acid]: 100%. `O=C(O)CNC(=O)c1c(O)c2ccc(-c3cncnc3)cc2sc1=O` [Example 14, [(4-Hydroxy-2-oxo-7-pyrimidin-5-yl-2H-thiochromene-3-carbonyl)-amino]-acetic acid] showed an inhibition at 50 µM of 99.5%.

Compound `O=C(O)CNC(=O)c1c(O)c2cc(-c3ccc(OC(F)(F)F)cc3)ccc2sc1=O` [Example 40, {[4-Hydroxy-2-oxo-6-(4-trifluoromethoxy-phenyl)-2H-thiochromene-3-carbonyl]-amino}-acetic acid] came in with an inhibition at 50 µM of 94.8%. On the same count and under the same terms, next, `O=C(O)CNC(=O)c1c(O)c2ccc(-c3ccccc3)cc2sc1=O` [Example 12, [(4-Hydroxy-2-oxo-7-phenyl-2H-thiochromene-3-carbonyl)-amino]-acetic acid]: 96.8%; `O=C(O)CNC(=O)c1c(O)c2ccc(-c3ccc(F)c(Cl)c3)cc2sc1=O` [Example 17, {[7-(3-Chloro-4-fluoro-phenyl)-4-hydroxy-2-oxo-2H-thiochromene-3-carbonyl]-amino}-acetic acid]: 92.8%. The compound `Cn1nc(C(F)(F)F)cc1-c1cccc2c(O)c(C(=O)NCC(=O)O)c(=O)sc12` [Example 49, {[4-Hydroxy-8-(2-methyl-5-trifluoromethyl-2H-pyrazol-3-yl)-2-oxo-2H-thiochromene-3-carbonyl]-amino}-acetic acid] registered an inhibition at 50 µM of 100%.

The compound `O=C(O)CNC(=O)c1c(O)c2cc(OCC3CCCCC3)ccc2sc1=O` [Example 63, [(6-Cyclohexylmethoxy-4-hydroxy-2-oxo-2H-thiochromene-3-carbonyl)-amino]-acetic acid] had an inhibition at 50 µM of 98.9%.

On to `O=C(O)CNC(=O)c1c(O)c2ccc(Cl)cc2sc1=O` [Example 60, [(7-Chloro-4-hydroxy-2-oxo-2H-thiochromene-3-carbonyl)-amino]-acetic acid], for which the inhibition at 50 µM is 96.5%. In the case of `Cc1ccc(-c2ccc3c(O)c(C(=O)NCC(=O)O)c(=O)sc3c2)cc1` [Example 19, [(4-Hydroxy-2-oxo-7-p-tolyl-2H-thiochromene-3-carbonyl)-amino]-acetic acid], the inhibition at 50 µM was determined as 92.1%. `O=C(O)CNC(=O)c1c(O)c2cccc(-c3ccccc3)c2sc1=O` [Example 51, [(4-Hydroxy-2-oxo-8-phenyl-2H-thiochromene-3-carbonyl)-amino]-acetic acid] registered an inhibition at 50 µM of 98.8%. Same read-out and setting: next, `O=C(O)CNC(=O)c1c(O)c2cccc(-c3cccnc3)c2sc1=O` [Example 50, [(4-Hydroxy-2-oxo-8-pyridin-3-yl-2H-thiochromene-3-carbonyl)-amino]-acetic acid]: 98.8%; `O=C(O)CNC(=O)c1c(O)c2cc(OCc3ccccc3)ccc2sc1=O` [Example 62, [(6-Benzyloxy-4-hydroxy-2-oxo-2H-thiochromene-3-carbonyl)-amino]-acetic acid]: 100%; `C[C@H](NC(=O)c1c(O)c2ccc(Cl)cc2sc1=O)C(=O)O` [Example 61, 2-(S)-[(7-Chloro-4-hydroxy-2-oxo-2H-thiochromene-3-carbonyl)-amino]-propionic acid]: 100%.

Still in this assay, the particulars now being: compound concentration 67 μM.
Compound `COc1ccccc1-c1ccc2sc(=O)c(C(=O)NCC(=O)O)c(O)c2c1` [Example 39, {[4-Hydroxy-6-(2-methoxy-phenyl)-2-oxo-2H-thiochromene-3-carbonyl]-amino}-acetic acid] showed an inhibition at 67 µM of 94.7%. The same measure, in the same setting: next, `O=C(O)CNC(=O)c1c(O)c2ccc(-c3ccccc3C(F)(F)F)cc2sc1=O` [Example 32, {[4-Hydroxy-2-oxo-7-(2-trifluoromethyl-phenyl)-2H-thiochromene-3-carbonyl]-amino}-acetic acid]: 93.2%; `C[C@H](NC(=O)c1c(O)c2ccc(-c3cccc(F)c3)cc2sc1=O)C(=O)O` [Example 31, 2-(S)-{[7-(3-Fluoro-phenyl)-4-hydroxy-2-oxo-2H-thiochromene-3-carbonyl]-amino}-propionic acid]: 98.4%; `O=C(O)CNC(=O)c1c(O)c2cc(-c3ccccc3Cl)ccc2sc1=O` [Example 36, {[6-(2-Chloro-phenyl)-4-hydroxy-2-oxo-2H-thiochromene-3-carbonyl]-amino}-acetic acid]: 99.7%.

`O=C(O)CNC(=O)c1c(O)c2cc(-c3cccc(F)c3)ccc2sc1=O` [Example 37, {[6-(3-Fluoro-phenyl)-4-hydroxy-2-oxo-2H-thiochromene-3-carbonyl]-amino}-acetic acid] registered an inhibition at 67 µM of 98.4%. On the same count and under the same terms, next, `C[C@H](NC(=O)c1c(O)c2cc(Br)ccc2sc1=O)C(=O)O` [Example 28, 2-(S)-[(6-Bromo-4-hydroxy-2-oxo-2H-thiochromene-3-carbonyl)-amino]-propionic acid]: 98%.

Staying with this assay, now noted: compound concentration 200 μM.
Take `CCCCCCOc1ccc2sc(=O)c(C(=O)NCC(=O)O)c(O)c2c1` [Example 64, [(6-Hexyloxy-4-hydroxy-2-oxo-2H-thiochromene-3-carbonyl)-amino]-acetic acid]: 200 µM produced 100% inhibition. Take `O=C(O)CNC(=O)c1c(O)c2ccccc2sc1=O` [Example 3, [(4-Hydroxy-2-oxo-2H-thiochromene-3-carbonyl)-amino]-acetic acid]: the inhibition at 200 µM amounted to 99.2%. On the same count and under the same terms, next, `O=C(O)CNC(=O)c1c(O)c2cc(F)ccc2sc1=O` [Example 4, [(6-Fluoro-4-hydroxy-2-oxo-2H-thiochromene-3-carbonyl)-amino]-acetic acid]: 100%.

For orientation: inhibition means the relative decrease from the control value, in per cent.
